Assay results as given in patent publication US9079895B2, “Morpholino compounds, uses and methods” (University of Dundee, priority 2012, dated 2015).

How the values were obtained:
Settings in all cases: average of at least two experiments
5HT3 receptor = 5HT3 receptor (Homo sapiens (Human), UniProt P46098); experiment: Secondary radioligand binding assay, 5HT3; set-up: key: “—” indicates that a binding interaction was not detected;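 also: radioligand competition binding on membranes from transfected cell lines, 1.5 h incubation at room temperature, filter-retained radioactivity measured by liquid scintillation counting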
5HT7 receptor = 5HT7 receptor (Homo sapiens (Human), UniProt P34969); experiment: Secondary radioligand binding assay, 5HT7; set-up: key to Ki 5HT7: “—” indicates that a binding interaction was not detected;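 also: competition of test compound with radioligand for binding to membranes from transfected cell lines, 1.5 h incubation at room temperature, filter-bound radioactivity read by liquid scintillation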
5HT2b receptor = 5HT2b receptor (Homo sapiens (Human), UniProt P41595); experiment: Secondary radioligand binding assay, 5HT2b; set-up: key to Ki 5HT2b: “—” indicates that a binding interaction was not detected;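 also: competition binding against a radioligand on membranes from transfected cell lines, 1.5 h incubation at room temperature, filter-retained radioactivity counted by liquid scintillation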
[1] = target: Alpha1B adrenergic receptor (Homo sapiens (Human), UniProt P35368); experiment: Secondary radioligand binding assay, Alpha1B; set-up: key to Ki Alpha1B: “—” indicates that a binding interaction was not detected
Excerpt: (§1) 1. Secondary Radioligand Binding Assays The detailed experimental protocols for the radioligand and functional receptor assays are available on the NIMH PDSP website at http://pdsp.med.unc.edu/UNC-CH %20Protocol %20Book.pdf. Raw data (dpm) representing total radioligand binding (i.e. specific+non-specific binding) are plotted as a function of the logarithm of the molar concentration of the competitor (i.e. test or reference compound). […] C. Adrenergic Receptors: α1A, α1B, α2A, α2B, α2C, β1, β2, β3 Assay Buffers: For α1 receptors, α1 Binding Buffer (20 mM Tris-HCl, 145 mM NaCl, pH 7.4); for α2 receptors, α2 Binding Buffer (50 mM Tris-HCl, 5 mM MgCl2, pH 7.7); for β receptors, β Binding Buffer (50 mM Tris-HCl, 3 mM MnCl2, pH 7.7) Membrane Fraction Source: Transiently or stably transfected cell lines (e.g. HEK293, COS, CHO, NIH3T3) Protocol adapted from Arango et al. […] (1990), Gen. Psychiatry, 47: 1038-1047. The method is carried out in the manner described for the serotonin receptor assay above, except where described below. Eleven dilutions (5× assay concentration) of the test and reference (see Table 20) compounds are prepared in the appropriate buffer by serial dilution, as previously described. Radioligand is diluted to five times the assay concentration (see Table 21) in the appropriate buffer. […] Four rapid 500-μl washes are performed with chilled distilled water (for α1 and β receptors) or 0.1% polyethyleneimine (for α2 receptors) to reduce non-specific binding. Filters are placed in 6 ml scintillation tubes and allowed to dry overnight and the samples are treated to obtain data as described above. [table]

5HT6 receptor = 5HT6 receptor (Homo sapiens (Human), UniProt P50406); experiment: Secondary radioligand binding assay, 5HT6; set-up: key: “—” indicates that a binding interaction was not detected;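 also: competition displacement of radioligand from membranes of transfected cell lines expressing the receptor, 1.5 h at room temperature, bound radioactivity counted by scintillation after filtration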
dopamine D1 receptor = dopamine D1 receptor (Homo sapiens (Human), UniProt P21728); experiment: Secondary radioligand binding assay, D1; set-up: key to Ki D1: “—” indicates that a binding interaction was not detected
Experimental: (§2) 1. Secondary Radioligand Binding Assays
(§3) The detailed experimental protocols for the radioligand and functional receptor assays are available on the NIMH PDSP website at http://pdsp.med.unc.edu/UNC-CH %20Protocol %20Book.pdf.
(§4) Radioligand is diluted to five times the assay concentration (see Table 18) in Standard Binding Buffer. Typically, the assay concentration of radioligand is a value between one half the KD and the KD of a particular radioligand at its target. 50 μl aliquots of radioligand are dispensed into the wells of a 96-well plate containing 100 μl of Standard Binding Buffer. Then, duplicate 50 μl aliquots of the test and reference compound dilutions are added.
(§5) The 250 μl reactions are incubated at room temperature and shielded from light (to prevent photolysis of light-sensitive ligands) for 1.5 hours, then harvested by rapid filtration onto Whatman GF/B glass fiber filters pre-soaked with 0.3% polyethyleneimine using a 96-well Brandel harverster. Four rapid 500 μl washes are performed with chilled Standard Binding Buffer to reduce non-specific binding. Filters are placed in 6 ml scintillation tubes and allowed to dry overnight. The next day, 4 ml of EcoScint scintillation cocktail (National Diagnostics) are added to each tube. The tubes are capped, labeled, and counted by liquid scintillation counting. […] The filter mats are dried, then scintillant is melted onto the filters and the radioactivity retained on the filters is counted in a Microbeta scintillation counter.
(§6) Raw data (dpm) representing total radioligand binding (i.e. specific+non-specific binding) are plotted as a function of the logarithm of the molar concentration of the competitor (i.e. test or reference compound).
(§7) B. Dopamine Receptors: D1, D2, D3, D4, D5 Assay Buffers: Dopamine Binding Buffer (50 mM NaCl, 50 mM HEPES-HCl, 5 mM MgCl2, 0.5 mM EDTA, pH 7.4) Membrane Fraction Source: Transiently or stably transfected cell lines (e.g. HEK293, COS, CHO, NIH3T3)
(§8) The method is carried out in the manner described for the serotonin receptor assay above. Eleven dilutions (5× assay concentration) of the test and reference (see Table 19) compounds are prepared in Dopamine Binding Buffer by serial dilution, as previously described. Radioligand is diluted to five times the assay concentration (see Table 20) in Dopamine Binding Buffer.

dopamine D5 receptor = dopamine D5 receptor (Homo sapiens (Human), UniProt P21918); experiment: Secondary radioligand binding assay, D5; set-up: key to Ki D5: “—” indicates that a binding interaction was not detected
Experimental: as §2, §3, §4, §5, §6, §7, §8

dopamine D3 receptor = dopamine D3 receptor (Homo sapiens (Human), UniProt P35462); experiment: Secondary radioligand binding assay, D3; set-up: key to Ki D3: “—” indicates that a binding interaction was not detected
Experimental: as §2, §3, §4, §5, §6, §7, §8

5HT1e receptor = 5HT1e receptor (Homo sapiens (Human), UniProt P28566); experiment: Secondary radioligand binding assay, 5HT1e; set-up: key: “—” indicates that a binding interaction was not detected;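 also: competition binding against a radioligand on membranes from transfected cell lines, 1.5 h at room temperature, bound radioactivity counted by liquid scintillation after filtration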
[2] = target: Alpha1A adrenergic receptor (Homo sapiens (Human), UniProt P35348); experiment: Secondary radioligand binding assay, Alpha1A; set-up: key to Ki Alpha1A: “—” indicates that a binding interaction was not detected
Excerpt: as §1

dopamine D2 receptor = dopamine D2 receptor (Homo sapiens (Human), UniProt P14416); experiment: Secondary radioligand binding assay, D2; set-up: key to Ki D2: “—” indicates that a binding interaction was not detected
Experimental: as §2, §3, §4, §5, §6, §7, §8

Chain of dopamine D2 receptor (P14416 whole entry, species assumed): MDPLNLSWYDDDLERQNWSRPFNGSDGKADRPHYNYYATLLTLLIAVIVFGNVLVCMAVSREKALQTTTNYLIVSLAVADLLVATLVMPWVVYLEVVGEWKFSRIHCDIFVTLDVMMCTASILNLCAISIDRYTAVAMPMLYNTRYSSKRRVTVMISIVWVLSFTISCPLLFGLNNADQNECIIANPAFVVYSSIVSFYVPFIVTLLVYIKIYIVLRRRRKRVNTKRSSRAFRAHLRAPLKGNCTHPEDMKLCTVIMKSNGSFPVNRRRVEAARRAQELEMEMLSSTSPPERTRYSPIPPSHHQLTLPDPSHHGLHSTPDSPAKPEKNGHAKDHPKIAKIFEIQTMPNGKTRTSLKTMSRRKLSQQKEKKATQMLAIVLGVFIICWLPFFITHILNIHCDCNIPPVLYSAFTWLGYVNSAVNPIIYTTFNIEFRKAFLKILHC
Chain of Alpha1B adrenergic receptor (P35368 whole entry): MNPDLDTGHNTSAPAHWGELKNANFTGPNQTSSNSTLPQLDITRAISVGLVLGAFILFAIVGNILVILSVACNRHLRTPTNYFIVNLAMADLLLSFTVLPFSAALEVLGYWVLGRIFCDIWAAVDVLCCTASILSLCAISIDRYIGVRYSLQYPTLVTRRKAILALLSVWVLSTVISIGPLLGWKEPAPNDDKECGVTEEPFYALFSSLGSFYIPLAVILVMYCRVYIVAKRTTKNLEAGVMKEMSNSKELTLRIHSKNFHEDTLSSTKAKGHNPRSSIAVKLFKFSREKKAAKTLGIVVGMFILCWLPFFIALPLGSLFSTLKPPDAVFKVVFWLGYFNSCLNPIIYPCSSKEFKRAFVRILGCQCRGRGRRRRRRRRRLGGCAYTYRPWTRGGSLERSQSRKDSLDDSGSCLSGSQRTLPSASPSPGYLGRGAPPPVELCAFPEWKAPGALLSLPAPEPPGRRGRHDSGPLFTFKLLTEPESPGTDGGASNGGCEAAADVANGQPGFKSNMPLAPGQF
Chain of 5HT7 receptor (P34969 whole entry): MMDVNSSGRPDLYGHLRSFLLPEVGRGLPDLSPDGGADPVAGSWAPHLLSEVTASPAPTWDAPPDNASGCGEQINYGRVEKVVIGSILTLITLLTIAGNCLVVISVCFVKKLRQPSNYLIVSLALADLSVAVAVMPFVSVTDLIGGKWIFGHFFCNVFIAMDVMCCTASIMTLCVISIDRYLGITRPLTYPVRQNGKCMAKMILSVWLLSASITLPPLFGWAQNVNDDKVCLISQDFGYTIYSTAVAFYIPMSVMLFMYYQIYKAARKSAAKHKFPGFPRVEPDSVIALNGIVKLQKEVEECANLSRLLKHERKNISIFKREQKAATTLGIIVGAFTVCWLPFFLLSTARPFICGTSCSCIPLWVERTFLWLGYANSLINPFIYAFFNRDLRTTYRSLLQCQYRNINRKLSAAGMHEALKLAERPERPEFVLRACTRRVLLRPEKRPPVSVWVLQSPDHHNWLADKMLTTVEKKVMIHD
Chain of 5HT1e receptor (P28566 whole entry): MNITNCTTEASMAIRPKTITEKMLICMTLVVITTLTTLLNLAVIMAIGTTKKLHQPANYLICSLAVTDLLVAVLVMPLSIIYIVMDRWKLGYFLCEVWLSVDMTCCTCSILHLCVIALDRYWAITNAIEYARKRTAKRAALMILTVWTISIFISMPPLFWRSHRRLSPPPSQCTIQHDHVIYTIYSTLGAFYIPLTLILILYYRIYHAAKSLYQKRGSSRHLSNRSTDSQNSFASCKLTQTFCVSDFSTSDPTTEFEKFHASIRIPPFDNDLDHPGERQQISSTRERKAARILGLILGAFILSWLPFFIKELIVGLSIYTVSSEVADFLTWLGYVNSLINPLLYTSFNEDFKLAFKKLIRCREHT
Chain of dopamine D1 receptor (P21728 whole entry): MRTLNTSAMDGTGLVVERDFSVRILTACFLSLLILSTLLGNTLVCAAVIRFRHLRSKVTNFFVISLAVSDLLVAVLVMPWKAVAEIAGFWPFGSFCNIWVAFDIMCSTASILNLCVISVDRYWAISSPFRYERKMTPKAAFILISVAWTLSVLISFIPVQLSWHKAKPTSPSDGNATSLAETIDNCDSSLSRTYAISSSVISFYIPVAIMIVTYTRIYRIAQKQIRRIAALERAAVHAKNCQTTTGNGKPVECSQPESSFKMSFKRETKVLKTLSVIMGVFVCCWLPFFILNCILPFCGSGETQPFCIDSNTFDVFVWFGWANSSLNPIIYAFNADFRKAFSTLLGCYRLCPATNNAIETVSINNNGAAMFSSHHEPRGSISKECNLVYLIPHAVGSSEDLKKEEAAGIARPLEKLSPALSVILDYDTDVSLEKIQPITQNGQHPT
Chain of dopamine D3 receptor (P35462 whole entry, species assumed): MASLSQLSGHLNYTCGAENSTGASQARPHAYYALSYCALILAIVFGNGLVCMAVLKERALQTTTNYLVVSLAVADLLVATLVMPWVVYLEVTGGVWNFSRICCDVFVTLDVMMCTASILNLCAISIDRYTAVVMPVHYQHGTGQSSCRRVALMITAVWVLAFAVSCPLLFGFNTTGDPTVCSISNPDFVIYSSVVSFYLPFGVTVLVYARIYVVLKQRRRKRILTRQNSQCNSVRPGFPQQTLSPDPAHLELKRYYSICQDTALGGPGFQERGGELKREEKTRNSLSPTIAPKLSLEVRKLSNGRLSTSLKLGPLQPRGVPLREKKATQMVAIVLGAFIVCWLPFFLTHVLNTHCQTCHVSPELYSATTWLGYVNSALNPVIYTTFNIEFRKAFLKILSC
Chain of 5HT3 receptor (P46098 24-478): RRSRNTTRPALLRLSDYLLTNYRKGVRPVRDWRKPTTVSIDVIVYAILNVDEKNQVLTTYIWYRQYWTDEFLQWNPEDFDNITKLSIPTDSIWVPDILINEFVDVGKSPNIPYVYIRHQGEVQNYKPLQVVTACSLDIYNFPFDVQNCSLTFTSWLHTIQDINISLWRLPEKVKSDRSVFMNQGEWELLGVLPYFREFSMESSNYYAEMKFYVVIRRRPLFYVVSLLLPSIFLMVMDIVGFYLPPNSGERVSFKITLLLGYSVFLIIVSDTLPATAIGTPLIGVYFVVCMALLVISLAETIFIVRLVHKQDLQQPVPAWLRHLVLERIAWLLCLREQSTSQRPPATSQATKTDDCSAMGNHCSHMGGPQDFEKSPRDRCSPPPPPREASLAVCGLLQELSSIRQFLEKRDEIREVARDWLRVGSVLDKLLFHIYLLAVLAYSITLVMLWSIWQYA
Chain of dopamine D5 receptor (P21918 whole entry): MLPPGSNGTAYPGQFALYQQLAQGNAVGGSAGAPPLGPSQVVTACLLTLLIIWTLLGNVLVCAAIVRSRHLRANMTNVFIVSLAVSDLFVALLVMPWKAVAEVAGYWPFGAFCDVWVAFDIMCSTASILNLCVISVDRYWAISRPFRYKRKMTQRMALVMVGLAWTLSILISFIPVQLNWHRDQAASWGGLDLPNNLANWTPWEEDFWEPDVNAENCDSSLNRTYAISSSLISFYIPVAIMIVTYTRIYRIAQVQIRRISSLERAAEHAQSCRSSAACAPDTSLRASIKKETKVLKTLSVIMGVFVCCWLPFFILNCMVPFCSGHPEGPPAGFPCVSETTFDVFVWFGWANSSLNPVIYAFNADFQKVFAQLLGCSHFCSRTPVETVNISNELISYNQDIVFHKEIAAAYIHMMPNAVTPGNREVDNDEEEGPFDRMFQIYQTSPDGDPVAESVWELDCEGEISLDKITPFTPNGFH
Chain of 5HT2b receptor (P41595 whole entry): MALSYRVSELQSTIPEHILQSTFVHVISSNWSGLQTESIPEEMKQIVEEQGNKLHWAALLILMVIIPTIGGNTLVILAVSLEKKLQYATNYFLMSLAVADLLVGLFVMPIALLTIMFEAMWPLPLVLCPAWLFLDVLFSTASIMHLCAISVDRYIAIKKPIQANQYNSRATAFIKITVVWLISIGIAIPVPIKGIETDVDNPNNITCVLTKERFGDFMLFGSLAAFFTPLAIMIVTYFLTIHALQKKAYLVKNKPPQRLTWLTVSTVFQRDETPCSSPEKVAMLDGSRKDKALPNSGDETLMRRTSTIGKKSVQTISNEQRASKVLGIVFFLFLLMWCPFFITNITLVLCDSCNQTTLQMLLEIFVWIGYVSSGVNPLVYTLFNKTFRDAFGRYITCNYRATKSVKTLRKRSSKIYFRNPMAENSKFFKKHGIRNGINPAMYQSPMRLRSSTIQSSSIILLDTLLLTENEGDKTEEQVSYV
Chain of 5HT6 receptor (P50406 whole entry): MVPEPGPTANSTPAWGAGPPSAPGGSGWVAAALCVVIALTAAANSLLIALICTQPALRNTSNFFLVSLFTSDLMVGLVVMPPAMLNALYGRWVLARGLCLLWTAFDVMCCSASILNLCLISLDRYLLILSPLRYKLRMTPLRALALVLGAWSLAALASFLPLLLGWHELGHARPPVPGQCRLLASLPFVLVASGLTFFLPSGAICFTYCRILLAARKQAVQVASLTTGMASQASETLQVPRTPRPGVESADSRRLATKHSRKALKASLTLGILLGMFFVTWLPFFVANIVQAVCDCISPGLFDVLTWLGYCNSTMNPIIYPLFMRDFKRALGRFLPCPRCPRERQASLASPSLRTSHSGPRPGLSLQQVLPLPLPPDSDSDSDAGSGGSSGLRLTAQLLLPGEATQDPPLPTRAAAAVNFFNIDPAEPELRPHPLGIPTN
Chain of Alpha1A adrenergic receptor (P35348 whole entry): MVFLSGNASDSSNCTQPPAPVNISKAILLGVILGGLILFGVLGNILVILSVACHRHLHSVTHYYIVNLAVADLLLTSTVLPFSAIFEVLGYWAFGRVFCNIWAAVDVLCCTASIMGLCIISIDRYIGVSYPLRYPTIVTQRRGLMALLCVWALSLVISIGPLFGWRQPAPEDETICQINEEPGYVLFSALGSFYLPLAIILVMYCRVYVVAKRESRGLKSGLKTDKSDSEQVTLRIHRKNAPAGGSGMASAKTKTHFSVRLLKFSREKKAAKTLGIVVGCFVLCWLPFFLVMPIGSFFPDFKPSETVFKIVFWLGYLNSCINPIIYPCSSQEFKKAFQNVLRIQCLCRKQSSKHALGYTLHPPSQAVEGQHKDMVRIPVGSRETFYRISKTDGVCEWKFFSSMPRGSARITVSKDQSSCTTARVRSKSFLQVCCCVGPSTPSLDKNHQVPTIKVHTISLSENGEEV

Ki (5HT7 receptor) | Ki (dopamine D3 receptor) | Ki (dopamine D1 receptor) | SMILES | Ki 5HT3 (5HT3 receptor) | Ki 5HT7 (5HT7 receptor) | Ki (5HT2b receptor) | Ki Alpha1B [1] | Ki 5HT6 (5HT6 receptor) | Ki D1 (dopamine D1 receptor) | Ki D5 (dopamine D5 receptor) | Ki D3 (dopamine D3 receptor) | Ki 5HT1e (5HT1e receptor) | Ki Alpha1A [2] | Ki D2 (dopamine D2 receptor) | Ki 5HT2b (5HT2b receptor) | Ki (dopamine D2 receptor)
 |  |  | O=C(CN1CCO[C@@H](COc2cccc(Cl)c2)C1)N1CCc2ccccc21 [Compound 22r, (R)-2-(2-((3-chlorophenoxy)methyl)morpholino)-1-(indolin-1-yl)ethanone] | — | — | 2.36 µM | — | — | — | — | — | — | — | — |  | 
 |  |  | O=C(CN1CCO[C@H](COc2cccc(Cl)c2)C1)N1CCc2ccccc21 [Compound 22s, (S)-2-(2-((3-Chlorophenoxy)methyl)morpholino)-1-(indolin-1-yl)ethanone] | — | — | 1.1 µM | — | — | — | — | — | — | — | — |  | 
 |  |  | COc1cccc(OC[C@@H]2CN(CC(=O)N3CCc4ccccc43)CCO2)c1 [Compound 24s, (S)-1-(Indolin-1-yl)-2-(2-((3-methoxyphenoxy)methyl)morpholino)ethanone] | — | — | 1.65 µM | — | — | — | — | — | — | — | — |  | 
> 10 µM | > 10 µM |  | Cc1ncccc1OC[C@H]1CN(CCN2CCc3ccccc32)CCO1 [Compound 26r, (R)-4-(2-(Indolin-1-yl)ethyl)-2-(((2-methylpyridin-3-yl)oxy)methyl)morpholine] | — |  | 3.17 µM | — | — | — | — |  | — | — | — |  | 
 |  |  | Cc1ncccc1OC[C@@H]1CN(CCN2CCc3ccccc32)CCO1 [Compound 26s, (S)-4-(2-(Indolin-1-yl)ethyl)-2-(((2-methylpyridin-3-yl)oxy)methyl)morpholine] | — | — |  | — | — | — | — | — | — | — | — | — | 
 |  |  | Clc1cncc(OC[C@H]2CN(CCN3CCc4ccccc43)CCO2)c1 [Compound 27r, (R)-2-(((5-Chloropyridin-3-yl)oxy)methyl)-4-(2-(indolin-1-yl)ethyl)morpholine] | — | — | 2.56 µM | — | — | — | — | — | — | — | — |  | 
 |  |  | Cc1ccc(OC[C@H]2CN(CCN3CCc4ccccc43)CCO2)cn1 [Compound 28r, (R)-4-(2-(Indolin-1-yl)ethyl)-2-(((6-methylpyridin-3-yl)oxy)methyl)morpholine] | — | — |  | — | — | — | — | — | — | — | — | — | 
 |  |  | Cc1ccc(OC[C@@H]2CN(CCN3CCc4ccccc43)CCO2)cn1 [Compound 28s, (S)-4-(2-(Indolin-1-yl)ethyl)-2-(((6-methylpyridin-3-yl)oxy)methyl)morpholine] | — | — |  | — | — | — | — | — | — | — | — | — | 
 |  |  | Cc1ccnc(C)c1OC[C@H]1CN(CCN2CCc3ccccc32)CCO1 [Compound 29r, (R)-2-(((2,4-Dimethylpyridin-3-yl)oxy)methyl)-4-(2-(indolin-1-yl)ethyl)morpholine] | — | — | 1.33 µM | — | — | — | — | — | — | — | — |  | 
 |  | > 10 µM | Cc1ncccc1OC[C@@H]1CN(CC(=O)N2c3ccccc3CC2C)CCO1.Cl (some centres unmarked) [Compound 60] | — | — | 4.61 µM | — | — |  | — | — | — | — | — |  | 
 |  | > 10 µM | Cc1ncccc1OC[C@@H]1CN(CC(=O)N2c3ccccc3C[C@H]2C)CCO1 [Compound 61] | — | — |  | — | — |  | — | — | — | — | — | — | 
 |  |  | Cc1ncccc1OC[C@H]1CN(CC(=O)N2c3ccccc3CC2C)CCO1 (some centres unmarked) [Compound 62] | — | — | 5.18 µM | — | — | — | — | — | — | — | — |  | 

SMILES | Ki (5HT7 receptor) | Ki (dopamine D3 receptor) | Ki (dopamine D1 receptor) | Ki 5HT3 (5HT3 receptor) | Ki 5HT7 (5HT7 receptor) | Ki (5HT2b receptor) | Ki Alpha1B [1] | Ki 5HT6 (5HT6 receptor) | Ki D1 (dopamine D1 receptor) | Ki D5 (dopamine D5 receptor) | Ki D3 (dopamine D3 receptor) | Ki 5HT1e (5HT1e receptor) | Ki Alpha1A [2] | Ki D2 (dopamine D2 receptor) | Ki 5HT2b (5HT2b receptor) | Ki (dopamine D2 receptor)
Clc1cncc(OC[C@@H]2CN(CCN3CCc4ccccc43)CCO2)c1 [Compound 27s, (S)-2-(((5-Chloropyridin-3-yl)oxy)methyl)-4-(2-(indolin-1-yl)ethyl)morpholine] |  |  | 5.85 µM | — | — |  | — | — |  | — | — | — | — |  | — | > 10 µM
